Columns and labels:
Format in all cases: physicochemical
[1] = Absorption spectrum in the neutral (bleached) state, UV-visible spectrophotometer; conditions: in chloroform
Experimental: The illustrated compound A-1 obtained was dissolved in chloroform, and the resulting solution was measured using an ultraviolet and visible spectrophotometer (V-560 manufactured by JASCO Corporation). As a result, an absorption spectrum illustrated in FIG. 6 was obtained.
Solutions prepared by dissolving compounds synthesized in Examples in chloroform were measured for the absorption spectra in the neutral state (bleached state) using an ultraviolet and visible spectrophotometer (V-560 manufactured by JASCO Corporation).

[2] = Durable stability against oxidation-reduction cycle (square-wave potential program, CV oxidation peak current); conditions: for Durability evaluation: change in oxidation peak current (CV) before and after 10000 oxidation-reduction cycles, 1.0×10^−4 mol/L in 0.1 mol/L tetrabutylammonium perchlorate in dichloroethane
Experimental: The durable stability against the oxidation-reduction cycle of the organic EC compound according to the present invention was evaluated. Specifically, the durability against repetition of an oxidation-reduction was evaluated using the illustrated compound A-1, the illustrated compound A-3 and Ref-1 as evaluation targets.
The measurement of durability against repetition of an oxidation-reduction was performed using a solution prepared by dissolving each compound in a predetermined solvent as a target sample, using a measuring apparatus provided with a work electrode, a counter electrode and a reference electrode. Here, the electrodes provided in the measuring apparatus and the solvent used will be shown below.
Work electrode: Glassy carbon
(§1) Counter electrode: Platinum
(§2) Reference electrode: Silver
Supporting electrolyte (solvent): Solution of tetrabutylammonium perchlorate in dichloroethane (0.1 mol/L)
Solution concentration: 1.0×10^−4 mol/L
The above solution was subjected to a square-wave potential program including oxidation at a constant potential and reduction at a constant potential for 10000 times. Here, the oxidation at a constant potential is a process of applying a potential equal to or higher than the oxidation potential of a target compound to the above solution for 10 seconds, and the reduction at a constant potential is a process of applying a potential of 0 V based on the reference electrode (Ag/Ag^+) to the above solution for 10 seconds.
The durability against repetition of an oxidation-reduction was evaluated based on the change in the amount of oxidation peak current in cyclic voltammetry (CV) measurement before and after the oxidation-reduction cycles for 10000 times. Specifically, when the rate of change in the amount of oxidation peak current was less than 20%, the durability was evaluated as Good, and when the rate of change was 20% or more, the durability was evaluated as Poor.

[3] = Absorption spectrum in the oxidized (colored) state, oxidation at constant potential; conditions: 5.0×10^−4 mol/L in 0.1 mol/L tetrabutylammonium perchlorate in propylene carbonate
Experimental: Next, the absorption spectra in the oxidized (colored) state were measured. Specifically, the absorption spectra were measured using a measuring cell provided with a work electrode, a counter electrode, a reference electrode and a liquid tank. Here, the electrodes provided in the measuring cell and the solute and solvent which are contained in the solution charged to the liquid tank will be shown below.
as §1, §2
Solute: Evaluation target compounds (illustrated compounds A-1 and A-3)
Solvent (supporting electrolyte): Solution of tetrabutylammonium perchlorate in propylene carbonate (0.1 mol/L)
(Note that the concentration of the solution charged to the liquid tank is 5.0×10^−4 mol/L.)
A compound was subjected to oxidation at a constant potential by applying a potential equal to or higher than the oxidation potential of the compound using the measuring cell to thereby measure the change in the absorption spectra and transmittance spectra. Here, the absorption peak wavelength in the colored state (oxidized state) and the absorption peak wavelength in the bleached state (neutral state) are shown in the following Table 3.

[4] = Measurement of solubility in propylene carbonate; conditions: for solubility: organic solvent or mixture
Source text: [Measurement of Solubility in Propylene Carbonate]
Note that propylene carbonate is a solvent contained in the electrochromic layer constituting the EC device. Further, Ref-1 is a compound in which methyl groups having no ethylene oxide chains are substituted at the 3-position and the 4-position of the thiophene ring, and substituents (substituents corresponding to A1 and A2 in general formula [1]) at the ortho positions of the phenyl group bonded to the thiophene ring are hydrogen atoms (no substitution).

Row | SMILES | absorption in the visible light region (neutral state) [1] | Neutral absorption λmax ([1]; neutral (bleached) state) | Durability evaluation [2] | Oxidized absorption λmax′ [3] | solubility [4] | number of oxidation-reduction cycles after which the amount of oxidation peak current was decreased by 20% ([2]; square-wave potential program, 10 s oxidation / 10 s reduction) | appearance of solution when a concentration of 6 mM was going to be prepared ([4]; 6 mM)
1 | COCCOCc1c(-c2c(OC)cccc2OC(C)C)sc(-c2c(OC)cccc2OC(C)C)c1COCCOC [A-1] | does not have absorption over the whole visible light region | 282.0 nm | Good (when the rate of change in the amount of oxidation peak current was less than 20%, the durability was evaluated as Good) | 415.8 nm | ≥ 150 mM |  | 
2 | Cc1c(-c2ccccc2)sc(-c2ccccc2)c1C [Ref-1] |  |  | Poor (when the rate of change was 20% or more, the durability was evaluated as Poor) |  | < 6 mM | about 2400 times | turbid

Source: patent publication US9145382B2, “Organic compound and electrochromic device using the same” (CANON KABUSHIKI KAISHA, priority 2014, dated 2015)
